Data: US10239887B2, “Positive allosteric modulators of the muscarinic acetylcholine receptor M4” (Vanderbilt University, priority 2016, dated 2019)
Counter-ions that a name gives are not always drawn. Like-named read-outs stand apart in the source and are kept apart here.

Assays:
rat mAChR M4 = biological target: T1, rat mAChR M4 (Rattus norvegicus, UniProt P08485); assay: mAChR M4 cell-based functional assay (calcium flux), rat M4; parameters: Emax: dose or concentration left out as unconfirmed; conditions: for EC50: read-out: Rat M4 EC50, CHO-K1 rM4-Gqi5 cells, calcium flux, increase in EC20 acetylcholine response
T1 sequence (P08485 1-478): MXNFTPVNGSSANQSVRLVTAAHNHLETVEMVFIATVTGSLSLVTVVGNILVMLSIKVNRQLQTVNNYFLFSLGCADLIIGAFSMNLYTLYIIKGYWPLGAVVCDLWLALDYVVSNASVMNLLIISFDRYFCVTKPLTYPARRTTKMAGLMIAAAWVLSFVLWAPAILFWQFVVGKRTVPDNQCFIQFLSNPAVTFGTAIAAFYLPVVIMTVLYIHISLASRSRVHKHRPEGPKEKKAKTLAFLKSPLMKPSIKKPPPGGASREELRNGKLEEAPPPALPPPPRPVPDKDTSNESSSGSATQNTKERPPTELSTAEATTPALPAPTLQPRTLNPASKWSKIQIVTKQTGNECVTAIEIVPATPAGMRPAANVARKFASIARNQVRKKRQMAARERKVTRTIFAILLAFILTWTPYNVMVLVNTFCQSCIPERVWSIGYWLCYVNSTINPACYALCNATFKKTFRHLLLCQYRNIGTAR

human mAChR M4 = biological target: T2, human mAChR M4 (Homo sapiens, UniProt P08173); assay: mAChR M4 cell-based functional assay (calcium flux), human M4; conditions: for Emax: % ACh maximum at 30 μM
T2 sequence (P08173 1-479): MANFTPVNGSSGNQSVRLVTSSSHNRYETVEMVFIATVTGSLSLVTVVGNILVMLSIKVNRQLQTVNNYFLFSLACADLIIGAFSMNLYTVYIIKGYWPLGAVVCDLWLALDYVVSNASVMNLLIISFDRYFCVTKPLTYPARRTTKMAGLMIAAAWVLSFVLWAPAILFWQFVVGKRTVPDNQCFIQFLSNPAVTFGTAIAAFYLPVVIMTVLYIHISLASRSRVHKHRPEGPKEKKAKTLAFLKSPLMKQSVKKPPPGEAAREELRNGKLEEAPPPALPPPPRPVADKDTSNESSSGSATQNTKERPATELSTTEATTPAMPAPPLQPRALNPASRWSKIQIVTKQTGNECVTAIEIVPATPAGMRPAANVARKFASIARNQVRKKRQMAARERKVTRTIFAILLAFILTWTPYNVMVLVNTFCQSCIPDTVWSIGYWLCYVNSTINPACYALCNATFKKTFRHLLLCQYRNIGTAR

[1] = Human M4 EC50, CHO-K1 hM4-Gqi5 cells, calcium flux, increase in EC20 acetylcholine response
[2] = Human M4 EC50 (nM), Table 11, calcium flux, PAM activity with EC20 acetylcholine

| SMILES | Emax (rat mAChR M4) [%] | EC50 (rat mAChR M4) [nM] | Emax (human mAChR M4; Human M4) [%] | EC50 (human mAChR M4; [1]) [nM] | EC50 (human mAChR M4; [2]) [nM] | Emax (human mAChR M4; Table 11) [%] | EC50 (human mAChR M4) [nM] |
| --- | --- | --- | --- | --- | --- | --- | --- |
| Cc1nnc2sc3c(N(C)C)ncnc3c2c1C [Compound 1, N,N,3,4-tetramethylpyrimido[4′,5′:4,5]thieno[2,3-c]pyridazin-8-amine] | 79 | 724 | 62 | 638 |  |  |  |
| Cc1nnc2sc3c(NC4CCCCC4)ncnc3c2c1C [Compound 2, N-cyclohexyl-3,4-dimethylpyrimido[4′,5′:4,5] thieno[2,3-c] pyridazin-8-amine] | 62 | 836 | 52 | 724 |  |  |  |
| Cc1nnc2sc3c(NC4CCOCC4)ncnc3c2c1C [Compound 3, 3,4-dimethyl-N-(tetrahydro-2H-pyran-4-yl) pyrimido[4′,5′:4,5] thieno[2,3-c]pyridazin-8-amine] | 60 | 521 | 45 | 446 |  |  |  |
| Cc1nnc2sc3c(N4CCCCC4)ncnc3c2c1C [Compound 4, 3,4-dimethyl-8-(piperidin-1-yl)pyrimido[4′,5′:4,5]thieno [2,3-c]pyridazine] | 58 | 215 | 44 | 120 |  |  |  |
| Cc1nnc2sc3c(NC4CCC4)ncnc3c2c1C [Compound 5, N-cyclobutyl-3,4-dimethylpyrimido[4′,5′:4,5] thieno[2,3-c]pyridazin-8-amine] | 80 | 112 | 73 |  |  |  |  |
| Cc1nnc2sc3c(N4CCCC4)ncnc3c2c1C [Compound 6, 3,4-dimethyl-8-(pyrrolidin-1-yl)pyrimido[4′,5′:4,5]thieno [2,3-c]pyridazine] | 82 |  | 68 |  |  |  |  |
| Cc1nnc2sc3c(NC4CN(c5ncc(C(F)(F)F)cn5)C4)ncnc3c2c1C [Compound 7, 3,4-dimethyl-N-(1-(5-(trifluoromethyl)pyrimidin-2-yl)azetidin-3-yl)pyrimido[4′,5′:4,5] thieno[2,3-c]pyridazin-8-amine] | 86 | 30 | 74 | 251 |  |  |  |
| Cc1nnc2sc3c(N4CCN(C5CC5)CC4)ncnc3c2c1C [Compound 8, 8-(4-cyclopropylpiperazin-1-yl)-3,4-dimethylpyrimido [4′,5′:4,5]thieno[2,3-c] pyridazine] | 42 | 700 | 30 | 616 |  |  |  |
| Cc1nnc2sc3c(N4CCC4)ncnc3c2c1C [Compound 9, 8-(azetidin-1-yl)-3,4-dimethylpyrimido [4′,5′:4,5]thieno[2,3-c] pyridazine] | 75 |  | 68 | 351 |  |  |  |
| Cc1nnc2sc3c(N4CC5CC5C4)ncnc3c2c1C (stereo not drawn) [Compound 10, 8-(3-azabicyclo[3.1.0]hexan-3-yl)-3,4-dimethylpyrimido [4′,5′:4,5]thieno[2,3-c] pyridazine] | 86 | 36 | 81 | 21 |  |  |  |
| Cc1nnc2sc3c(N4CCC(N(C)C)C4)ncnc3c2c1C (stereo not drawn) [Compound 11, 1-(3,4-dimethylpyrimido [4′,5′:4,5]thieno[2,3-c]pyridazin-8-yl)-N,N-dimethylpyrrolidin-3-amine] | 55 | 326 | 40 | 257 |  |  |  |
| COCCN(C)c1ncnc2c1sc1nnc(C)c(C)c12 [Compound 12, N-(2-methoxyethyl)-N,3,4-trimethylpyrimido [4′,5′:4,5]thieno[2,3-c] pyridazin-8-amine] | 57 | 927 | 40 | 846 |  |  |  |
| Cc1nnc2sc3c(N4CC5(COC5)C4)ncnc3c2c1C [Compound 13, 6-(3,4-dimethylpyrimido [4′,5′:4,5]thieno[2,3-c]pyridazin-8-yl)-2-oxa-6-azaspiro[3.3]heptane] | 86 | 231 | 73 | 123 |  |  |  |
| COCC1CN(c2ncnc3c2sc2nnc(C)c(C)c23)C1 [Compound 14, 8-(3-(methoxymethyl)azetidin-1-yl)-3,4-dimethylpyrimido [4′,5′:4,5]thieno[2,3-c] pyridazine] | 75 |  | 62 |  |  |  |  |
| Cc1cnc2sc3c(NC4CN(c5ncc(C(F)(F)F)cn5)C4)ncnc3c2c1 [Compound 17, 8-methyl-N-(1-(5-(trifluoromethyl)pyrimidin-2-yl)azetidin-3-yl)pyrido[3′,2′:4,5] thieno[3,2-d]pyrimidin-4-amine] | 76 | 424 | 32 |  |  |  |  |
| Cc1cnc2sc3c(N4CCC4)ncnc3c2c1 [Compound 18, 4-(azetidin-1-yl)-8-methylpyrido[3′,2′:4,5] thieno[3,2-d]pyrimidine] | 51 | 2500 | 58 |  |  |  |  |
| Cc1nnc2sc3c(N4CCC(Oc5ccncc5)(C(F)(F)F)C4)ncnc3c2c1C (stereo not drawn) [Compound 366, 3,4-dimethyl-8-[3-(4-pyridyloxy)-3-(trifluoromethyl)pyrrolidin-1-yl]pyrimido[4′,5′:4,5]thieno[2,3-c]pyridazine dihydrochloride] |  |  |  |  | 1360 | 77.7 |  |
| COC(C)(C)c1ccc(CNc2ncnc3c2sc2nnc(C)c(C)c23)cc1 [Compound 367, N-[[4-(1-methoxy-1-methyl-ethyl)phenyl]methyl]-3,4-dimethyl-pyrimido[4′,5′:4,5] thieno[2,3-c]pyridazin-8-amine] |  |  |  |  |  | 100 |  |
| Cc1nnc2sc3c(NCc4ccc(C(C)(C)CO)cc4F)ncnc3c2c1C [Compound 368, 2-[4-[[(3,4-dimethylpyrimido[4′,5′:4,5]thieno[2,3-c]pyridazin-8-yl)amino]methyl]-3-fluoro-phenyl]-2-methyl-propan-1-ol] |  |  |  |  | 766 | 98 |  |
| [2H]C([2H])(Nc1ncnc2c1sc1nnc(C)c(C)c12)c1ccc(C(C)(C)O)cc1 [Compound 369, 2-[4-[dideuterio-[(3,4-dimethylpyrimido[4′,5′:4,5]thieno[2,3-c]pyridazin-8-yl)amino]methyl]phenyl] propan-2-ol] |  |  |  |  |  | 100 |  |
| [2H]C([2H])([2H])OC(C)(C)c1ccc(CNc2ncnc3c2sc2nnc(C)c(C)c23)cc1 [Compound 370, 3,4-dimethyl-N-[[4-[1-methyl-1-(trideuteriomethoxy)ethyl]phenyl]methyl] pyrimido[4′,5′:4,5]thieno [2,3-c]pyridazin-8-amine] |  |  |  |  | 326 | 93.1 |  |
| Cc1nnc2sc3c(NCc4ccc(C(C)(C)N)cc4)ncnc3c2c1C [Compound 371, N-[[4-(1-amino-1-methyl-ethyl)phenyl]methyl]-3,4-dimethyl-pyrimido[4′,5′:4,5] thieno[2,3-c]pyridazin-8-amine] |  |  |  |  | 41.6 | 93.6 |  |
| Cc1nnc2sc3c(NCc4ccc5c(c4)COC5(C)C)ncnc3c2c1C [Compound 372, N-[(1,1-dimethyl-3H-isobenzofuran-5-yl)methyl]-3,4-dimethyl-pyrimido[4′,5′:4,5]thieno [2,3-c]pyridazin-8-amine] |  |  |  |  |  | 94.7 |  |
| Cc1nnc2sc3c(NCc4ccc(C(C)(O)CO)cc4)ncnc3c2c1C (stereo not drawn) [Compound 373, 2-[4-[[(3,4-dimethylpyrimido[4′,5′:4,5]thieno[2,3-c]pyridazin-8-yl)amino]methyl]phenyl] propane-1,2-diol] |  |  |  |  |  | 98 | 69.2 |
| Cc1nnc2sc3c(NCc4ccc(C5COC5)cc4)ncnc3c2c1C [Compound 374, 3,4-dimethyl-N-[[4-(oxetan-3-yl)phenyl]methyl] pyrimido[4′,5′:4,5]thieno [2,3-c]pyridazin-8-amine] |  |  |  |  | 45.2 | 101 |  |
| Cc1nnc2sc3c(NCc4ccc(C(C)(C)CO)cc4)ncnc3c2c1C [Compound 375, 2-[4-[[(3,4-dimethylpyrimido[4′,5′:4,5]thieno[2,3-c]pyridazin-8-yl)amino]methyl]phenyl]-2-methyl-propan-1-ol] |  |  |  |  | 138 | 87.2 |  |
| CC(=O)OCc1nnc2sc3c(NCc4ccc(C(C)(C)O)cc4)ncnc3c2c1C [Compound 376, [8-[[4-(1-hydroxy-1-methyl-ethyl)phenyl]methylamino]-4-methyl-pyrimido[4′,5′:4,5]thieno[2,3-c]pyridazin-3-yl]methyl acetate] |  |  |  |  |  | 59.4 |  |
| Cc1c(CO)nnc2sc3c(NCc4ccc(C(C)(C)O)cc4)ncnc3c12 [Compound 377, 2-[4-[[[3-(hydroxymethyl)-4-methyl-pyrimido[4′,5′:4,5]thieno[2,3-c]pyridazin-8-yl]amino]methyl]phenyl]propan-2-ol] |  |  |  |  |  | 93.6 |  |
